Experimental data from patent US20240271180A1, “METHOD FOR DETECTING CONTAMINATING LIPASE ACTIVITY” (BOEHRINGER INGELHEIM INTERNATIONAL GMBH, priority 2020, published 2024).

What was measured:
[1] = Auto-hydrolysis of 4-MU esters; type: physicochemical; details: 30 μM, AMT assay buffer, 10 mM CHAPS, pH 5.5, 1800 seconds; compared to e.g. butyrate (4-MUB)
[2] = derivable from literature; cited from earlier work
[3] = tested on: hydrolytic activity of PPL and in BDS B and BDS E; test: Comparison of surfactants in 4-MUD lipase assay; type: biochemical; details: 10 mM CHAPS vs 0.25% Triton X-100 vs 0.25% Triton X-100 and 0.125% gum arabicum, pH 5.5
Protocol: Therefore, hydrolytic activity of PPL (0.024 mg/ml in the reaction mixture) and in BDS B and BDS E (2.4 mg/ml in the reaction mixture) was measured in ATM buffer, pH 5.5, with either 10 mM CHAPS, 0.25% Triton X-100 or 0.25% Triton X-100 and 0.125% gum arabicum. […] Gum arabicum is an emulsifier and no effect of gum arabicum on the activity has been observed in any of the experiments.

[4] = tested on: lipase activity in drug substance samples (Product G, B, F) and UF/DF sample of Product D; test: 4-MUD lipase assay with or without CHAPS; type: biochemical; details: 10 mM CHAPS (above CMC) vs without, 30 μM 4-MUD, pH 5.5
Protocol: First, a surfactant was tested above its CMC (critical micelle concentration). Therefore 10 mM CHAPS were added to the assay. […] The samples tested were drug substance samples comprising Product G, Product B, Product F and a sample following ultrafiltration/diafiltration of Product D, each added at 72 μL per well. […] Without being bound by theory it is hypothesized that a surfactant creates an environment that promotes lipase activity by allowing the rearrangement and opening of the lid or flap, which has been described to cover the active site (Grochulski P, Li Y, Schrag J D, et al. Protein Sci 1994; 3:82-91 and Grochulski P, Bouthillier F, Kazlauskas R J, et al. Biochemistry 1994; 33:3494-500). Therefore, a concentration of 10 mM CHAPS in the final reaction-mix was selected.

[5] = tested on: hydrolytic activity of an exemplary drug product sample; details: NaCl 7.8125-1000 mM, 30 μM 4-MUD, AMT buffer without NaCl, pH 5.5
Protocol: Therefore, the influence of the ionic strength on the measured hydrolytic activity was tested. Hydrolytic activity of an exemplary drug product sample was measured in the presence of varying concentrations of NaCl (1000 mM-7.8125 mM).

[6] = tested on: hydrolytic activity of a drug product sample (Product D); test: 4-MUD lipase assay with Orlistat; type: biochemical; details: Orlistat 7.3 nM-20 μM, 30 μM 4-MUD, AMT buffer pH 5.5
[7] = tested on: hydrolytic activity responsible for polysorbate degradation in a drug product sample (Product D); test: PS20 degradation in drug product, HPLC-CAD; details: 1 μM Orlistat, 0.2 mg/mL PS20, RT, pH 5.5, up to 56 days, vs control (DMSO only)
PPL = molecular target: T1, PPL (Sus scrofa, UniProt P00591); details: Jahn et al.; cited from earlier work
T1 sequence (P00591 1-450): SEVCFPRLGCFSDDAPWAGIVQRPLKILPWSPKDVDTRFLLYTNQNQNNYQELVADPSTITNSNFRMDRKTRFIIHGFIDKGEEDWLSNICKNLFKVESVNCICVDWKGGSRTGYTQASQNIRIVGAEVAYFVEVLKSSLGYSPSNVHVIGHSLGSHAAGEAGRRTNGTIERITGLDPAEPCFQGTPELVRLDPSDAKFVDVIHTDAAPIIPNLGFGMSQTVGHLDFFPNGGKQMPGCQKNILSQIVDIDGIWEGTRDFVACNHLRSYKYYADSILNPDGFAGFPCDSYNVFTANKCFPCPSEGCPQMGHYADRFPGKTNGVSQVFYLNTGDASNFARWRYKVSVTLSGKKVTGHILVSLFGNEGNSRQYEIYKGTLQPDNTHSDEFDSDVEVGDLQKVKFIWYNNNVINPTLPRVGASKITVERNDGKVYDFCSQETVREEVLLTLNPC

CCCCCCCCCC(=O)Oc1ccc2c(C)cc(=O)oc2c1 [4-MUD, 4-methylumbelliferyl decanoate]
auto-hydrolysis [1]: better resistance to auto-hydrolysis

C[C@H](CCC(=O)NCCC[N+](C)(C)CCCS(=O)(=O)[O-])[C@H]1CC[C@H]2[C@@H]3[C@H](O)C[C@@H]4C[C@H](O)CC[C@]4(C)[C@H]3C[C@H](O)[C@]12C [CHAPS, 3-[(3-cholamidopropyl)dimethylammonio]-1-propanesulfonate]
critical micelle concentration (CMC) [2]: about 6 mM | hydrolytic activity compared between surfactants [3]: outperforms Triton X-100 and Triton X-100 and gum arabicum | effect on lipase hydrolysis [4]: lipase hydrolysis was increased

C[C@H](CCC(=O)NCCC[N+](C)(C)CC(O)CS(=O)(=O)[O-])[C@H]1CC[C@H]2[C@@H]3[C@H](O)C[C@@H]4C[C@H](O)CC[C@]4(C)[C@H]3C[C@H](O)[C@]12C (stereo partly shown) [CHAPSO, 3-([3-Cholamidopropyl)dimethylammonio]-2-hydroxy-1-propanesulfonate]
critical micelle concentration (CMC) [2]: about 8 mM

[Cl-].[Na+] [NaCl]
NaCl concentration at which lipase activity decreased [5]: ≥ 250 mM

CCCCCCCCCCC[C@@H](C[C@@H]1OC(=O)[C@H]1CCCCCC)OC(=O)[C@H](CC(C)C)NC=O [Orlistat]
inhibition of lipase activity [6]: inhibited lipase activity in a concentration dependent manner | degradation of PS20 [7]: reduced degradation of PS20

CCCCCCCCCCCC[N+](C)(C)CCCS(=O)(=O)[O-] [Zwittergent 3-12, n-Dodecyl-N,N-dimethyl-3-ammonio-1-propanesulfonate]
critical micelle concentration (CMC) [2]: 2 to 4 mM

polyethylene glycol tert-octylphenyl ether [Triton X-100]
effect on PPL activity (PPL): de-activating effect
